Here are results for one compound from PMC9897032, “How Many Sirtuin Genes Are Out There? Evolution of Sirtuin Genes in Vertebrates With a Description of a New Family Member” (Molecular Biology and Evolution, 2023).

The test deals with T1, human SIRT3 (Homo sapiens, UniProt Q9NTG7).
T1 construct: recombinant enzyme supplied with Abcam fluorometric SIRT3 activity kit
T1 sequence (Q9NTG7 102-399): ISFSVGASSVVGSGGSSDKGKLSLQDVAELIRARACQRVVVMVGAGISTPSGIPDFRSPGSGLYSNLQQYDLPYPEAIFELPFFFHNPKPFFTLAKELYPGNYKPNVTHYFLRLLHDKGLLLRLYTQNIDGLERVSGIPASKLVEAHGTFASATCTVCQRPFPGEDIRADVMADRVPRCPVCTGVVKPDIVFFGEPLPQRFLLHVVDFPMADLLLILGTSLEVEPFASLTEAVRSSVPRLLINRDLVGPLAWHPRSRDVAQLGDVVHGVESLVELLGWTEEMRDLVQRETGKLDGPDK
The experiment in a line: fluorometric deacetylation assay, acetylated substrate peptide (Abcam ab156067). The test is classed as biochemical. Particulars: activator; 37 °C; NAD+ dependent assay.

As to `Oc1ccc(/C=C/c2cc(O)cc(O)c2)cc1` [REV, resveratrol], the “fold increase in activity at 100 μM” value is 1.6 ± 0.1 fold.
